In US11452682B2, “Toothpaste composition for alleviating dentin hyperesthesia” (HYSENSBIO, priority 2018, dated 2022):

test system: DSPP gene; test: mRNA level of DSPP gene in MDPC-23 cells by RT-PCR and real-time PCR; format: cell-based, mouse; settings: cultured 48 hours with peptide, relative ratio to mRNA level in untreated control, Gapdh internal control, repeated three times
Description: The MDPC-23 cells cultured in Example 2-1 were treated with the peptides of each group synthesized in Example 1, then cultured for 48 hours. The mRNA level of the DSPP, an odontoblast differentiation marker gene, expressed in the MDPC-23 cells were measured, and the measured mRNA level of each DSPP gene was converted into a relative ratio to the mRNA level of the DSPP gene measured in control (Tables 13 to 24). In addition, the average value of the mRNA level of the DSPP gene measured according to the peptides of each group was compared (FIG. 1B). At this time, as a control, MDPC-23 cells that were not treated with the peptide promoting differentiation of odontoblast were used.
The expression level of the DSPP gene was measured through RT-PCR and real-time PCR analysis: Specifically, total RNA was extracted from the MDPC-23 cells using TRIzol reagent. 2 μg of the total RNA, 1 μl of reverse transcriptase, and 0.5 μg of oligo (oligo; dT) were used to synthesize cDNA. The synthesized cDNA was used in a real-time polymerase chain reaction. The real-time polymerase chain reaction was performed on an ABI PRISM 7500 sequence detection system (Applied Biosystems) and an SYBR GREEN PCR Master Mix (Takara, Japan). The real-time polymerase chain reaction was performed under conditions of 94° C., 1 min; 95° C., 15 sec; 60° C., 34 sec for 40 cycles. Results were analyzed by a comparative cycle threshold (CT) method. At this time, the Gapdh gene was used as the internal control group, and the measured value was repeated three times. The mean value and standard deviation value thereof were used.

Substance	mRNA level of Dspp gene Mean
62 (KYRQKRKSYK; Novel peptide) [compound 62]	1.672
37 (KYRQKKKNKY; Novel peptide) [compound 37]	1.597
27 (KYQRRRKSYK; Novel peptide) [compound 27]	1.993
20 (KYQRRRRNYK; Novel peptide) [compound 20]	2.553
75 (KYKQRRKSKY; Novel peptide) [compound 75]	1.997
26 (KYQRRKRSYK; Novel peptide) [compound 26]	2.193
72 (KYKQKRRNKY; Novel peptide) [compound 72]	2.011
8 (KYQRKRRNKY; Novel peptide) [compound 8]	1.639
